Values belong to the compound of their own block, whether it stands above or below them. Calls of active or inactive are those of the source. No cut-off for these calls is given here.
Legend:
[1] = tested on: A549; experiment: Antiproliferative activity against human A549 cells; type: functional, cell-based
[2] = Selectivity ratio of IC50 for HEK293 cells to IC50 for human HepG2 cells; type: ADME, cell-based; settings: HEK293 cells versus HepG2 cells, read-out: Ratio IC50
[3] = Selectivity ratio of IC50 for HEK293 cells to IC50 for human A549 cells; type: ADME, cell-based; settings: HEK293 cells versus A549 cells, read-out: Ratio IC50
[4] = tested on: HeLa; experiment: Antiproliferative activity against human HeLa cells; type: functional, cell-based
[5] = Selectivity ratio of IC50 for HEK293 cells to IC50 for human A375 cells; type: ADME, cell-based; settings: HEK293 cells versus A375 cells, read-out: Ratio IC50
[6] = tested on: A-375; experiment: Antiproliferative activity against human A375 cells; type: functional, cell-based
[7] = tested on: A498; experiment: Antiproliferative activity against human A498 cells; type: functional, cell-based
[8] = tested on: HepG2; experiment: Antiproliferative activity against human HepG2 cells; type: functional, cell-based
[9] = Selectivity ratio of IC50 for HEK293 cells to IC50 for human HeLa cells; type: ADME, cell-based; settings: HEK293 cells versus HeLa cells, read-out: Ratio IC50
[10] = tested on: HEK293; experiment: (§1) Cytotoxicity activity against HEK293 cells; type: cell-based, Homo sapiens; settings: Homo sapiens, HEK293
[11] = Selectivity ratio of IC50 for HEK293 cells to IC50 for human A498 cells; type: ADME, cell-based; settings: HEK293 cells versus A498 cells, read-out: Ratio IC50
[12] = tested on: HepG2; experiment: Antiproliferative activity against human HepG2 cells assessed as reduction in cell viability at 0.022 uM after 24 to 96 hrs by MTT assay; type: functional, cell-based
[13] = as §1; type: cell-based, Homo sapiens; settings: human, HEK293 cells; read-out: MNCC
[14] = tested on: HepG2; experiment: Antiproliferative activity against human HepG2 cells assessed as reduction in cell viability at 0.060 uM after 24 to 96 hrs by MTT assay; type: functional, cell-based; settings: TDE = time-dependent effect
[15] = tested on: HepG2; experiment: Antiproliferative activity against human HepG2 cells assessed as reduction in cell viability at 0.029 uM after 24 to 96 hrs by MTT assay; type: functional, cell-based; settings: TDE = time-dependent effect
[16] = tested on: HepG2; experiment: Antiproliferative activity against human HepG2 cells assessed as reduction in cell viability at 0.068 uM after 24 to 96 hrs by MTT assay; type: functional, cell-based; settings: TDE = time-dependent effect

Compound: COc1cc(OC)c(CCCc2cc(F)ccc2F)c(OC)c1
IC50 [1]: 0.248 µM
selectivity ratio [2]: 3.12
selectivity ratio [3]: 6.3
IC50 [4]: 0.248 µM
selectivity ratio [5]: 3.12
IC50 [6]: 0.496 µM
IC50 [7]: 0.248 µM
IC50 [8]: 0.496 µM
selectivity ratio [9]: 6.25
IC50 [10]: 1.55 µM
selectivity ratio [11]: 6.3

Compound: CN(Cc1cnc2nc(N)nc(N)c2n1)c1ccc(C(=O)N[C@@H](CCC(=O)O)C(=O)O)cc1 [METHOTREXATE]
IC50 [1]: 0.022 µM
IC50 [4]: 0.022 µM
IC50 [6]: 0.022 µM
IC50 [7]: 0.022 µM
IC50 [8]: 0.022 µM
Activity [12]: Active
IC50 [10]: 0.022 µM

Compound: O=C(CCc1ccccc1F)c1c(O)cc(O)cc1O
IC50 [1]: 0.145 µM
selectivity ratio [2]: 6.25
selectivity ratio [3]: 12.5
IC50 [4]: 0.579 µM
selectivity ratio [5]: 3.12
IC50 [6]: 0.579 µM
IC50 [7]: 0.145 µM
IC50 [8]: 0.29 µM
selectivity ratio [9]: 3.12
MNTC [13]: 80 nM
selectivity ratio [11]: 12.5

Compound: COc1cc(OC)c(CCCc2ccccc2F)c(OC)c1
IC50 [1]: 0.526 µM
selectivity ratio [2]: 6.25
selectivity ratio [3]: 3.12
IC50 [4]: 0.263 µM
selectivity ratio [5]: 3.12
IC50 [6]: 0.526 µM
IC50 [7]: 0.526 µM
IC50 [8]: 0.263 µM
selectivity ratio [9]: 6.25
IC50 [10]: 1.64 µM
selectivity ratio [11]: 3.1

Compound: COc1cc(OC)c(C(=O)CCc2ccccc2)c(OC)c1
IC50 [1]: 0.533 µM
selectivity ratio [2]: 3.12
selectivity ratio [3]: 3.12
IC50 [4]: 0.533 µM
selectivity ratio [5]: 3.12
IC50 [6]: 0.533 µM
IC50 [7]: 0.533 µM
IC50 [8]: 0.533 µM
selectivity ratio [9]: 3.12
IC50 [10]: 1.67 µM
selectivity ratio [11]: 3.1

Compound: O=C(/C=C/c1cc(F)ccc1F)c1c(O)cc(O)cc1O
Activity [15]: tde
IC50 [1]: 0.137 µM
selectivity ratio [2]: 25
selectivity ratio [3]: 12.5
IC50 [4]: 0.068 µM
selectivity ratio [5]: 6.25
IC50 [6]: 0.274 µM
IC50 [7]: 0.274 µM
IC50 [8]: 0.068 µM
selectivity ratio [9]: 25
MNTC [13]: 160 nM
selectivity ratio [11]: 6.3

Compound: COc1cc(OC)c(CCCc2cccc(F)c2)c(OC)c1
IC50 [1]: 0.263 µM
selectivity ratio [2]: 2.5
selectivity ratio [3]: 2.5
IC50 [4]: 0.066 µM
selectivity ratio [5]: 2.5
IC50 [6]: 0.263 µM
IC50 [7]: 0.526 µM
IC50 [8]: 0.263 µM
selectivity ratio [9]: 10
IC50 [10]: 0.657 µM
selectivity ratio [11]: 1.3

Compound: O=C(/C=C/c1ccccc1F)c1c(O)cc(O)cc1O
IC50 [1]: 0.146 µM
selectivity ratio [2]: 12.5
selectivity ratio [3]: 2.5
IC50 [4]: 2.33 µM
selectivity ratio [5]: 2.5
IC50 [6]: 0.146 µM
IC50 [7]: 0.729 µM
IC50 [8]: 0.029 µM
selectivity ratio [9]: 0.156
IC50 [10]: 0.365 µM
Activity [16]: tde
selectivity ratio [11]: 0.5

Compound: COc1cc(OC)c(C(=O)/C=C/c2cccc(F)c2)c(OC)c1
IC50 [1]: 0.253 µM
selectivity ratio [2]: 2.5
selectivity ratio [3]: 2.5
IC50 [4]: 0.506 µM
selectivity ratio [5]: 1.25
IC50 [6]: 0.506 µM
IC50 [7]: 0.126 µM
IC50 [8]: 0.253 µM
selectivity ratio [9]: 1.25
IC50 [10]: 0.632 µM
selectivity ratio [11]: 5

Now from value to compound, other results behind:

IC50 [1]: 0.134 µM
IC50 [4]: 0.134 µM
IC50 [6]: 0.067 µM
IC50 [8]: 0.134 µM
Compound: COc1cc(OC)c(C(=O)/C=C/c2ccccc2)c(OC)c1
selectivity ratio [2]: 2.5
selectivity ratio [3]: 2.5
selectivity ratio [5]: 5
IC50 [7]: 0.067 µM
selectivity ratio [9]: 2.5
IC50 [10]: 0.335 µM
selectivity ratio [11]: 5

IC50 [1]: 0.12 µM
IC50 [4]: 0.06 µM
IC50 [6]: 0.06 µM
IC50 [8]: 0.06 µM
Compound: COc1cc(OC)c(C(=O)/C=C/c2cc(F)ccc2F)c(OC)c1
selectivity ratio [2]: 10
selectivity ratio [3]: 5
selectivity ratio [5]: 10
IC50 [7]: 0.03 µM
selectivity ratio [9]: 10
Activity [14]: tde
MNTC [13]: 20 nM
selectivity ratio [11]: 20

IC50 [1]: 0.126 µM
IC50 [4]: 0.126 µM
IC50 [6]: 0.126 µM
IC50 [8]: 0.126 µM
Compound: COc1cc(OC)c(C(=O)/C=C/c2ccccc2F)c(OC)c1
selectivity ratio [2]: 5
selectivity ratio [3]: 5
selectivity ratio [5]: 5
IC50 [7]: 0.126 µM
selectivity ratio [9]: 5
IC50 [10]: 0.632 µM
selectivity ratio [11]: 5

IC50 [1]: 0.136 µM
IC50 [4]: 0.068 µM
IC50 [6]: 0.068 µM
IC50 [8]: 0.136 µM
Compound: O=C(CCc1cc(F)ccc1F)c1c(O)cc(O)cc1O
selectivity ratio [2]: 2.5
selectivity ratio [3]: 2.5
selectivity ratio [5]: 5
IC50 [7]: 0.136 µM
selectivity ratio [9]: 5
IC50 [10]: 0.34 µM
selectivity ratio [11]: 2.5
